Values after ≈ are worked out from the molar mass of the structure shown.
Columns and labels:
Saccharomyces cerevisiae = assay: Antifungal against Saccharomyces cerevisiae after 24 hrs by two fold serial dilution method; assay type: functional
Bacillus = assay: Antibacterial activity against Bacillus proteus ATCC 13315 after 24 hrs by micro broth dilution assay; assay type: functional; conditions: ATCC 13315, 24 h
Pichia norvegensis = assay: Antifungal against Candida mycoderma after 24 hrs by two fold serial dilution method; assay type: functional
Staphylococcus aureus [1] = assay: Antibacterial activity against methicillin-resistant Staphylococcus aureus N315 after 24 hrs by micro broth dilution assay; assay type: functional; conditions: N315, 24 h
Cyberlindnera jadinii = assay: Antifungal against Candida utilis after 24 hrs by two fold serial dilution method; assay type: functional; conditions: Williopsis jadinii
Salmonella typhi = assay: Antibacterial activity against Bacillus typhi after 24 hrs by micro broth dilution assay; assay type: functional, Salmonella enterica subsp. enterica serovar Typhi; conditions: Salmonella enterica
Staphylococcus aureus [2] = assay: Antibacterial activity against Staphylococcus aureus ATCC 25923 after 24 hrs by micro broth dilution assay; assay type: functional; conditions: ATCC 25923, 24 h
Escherichia coli [3] = assay: Antibacterial activity against Escherichia coli JM109 after 24 hrs by micro broth dilution assay; assay type: functional; conditions: JM109, 24 h
Aspergillus flavus = assay: Antifungal against Aspergillus flavus after 24 hrs by two fold serial dilution method; assay type: functional
Micrococcus luteus = assay: Antibacterial activity against Micrococcus luteus ATCC4698 after 24 hrs by micro broth dilution assay; assay type: functional; conditions: ATCC4698, 24 h
Shigella dysenteriae = assay: Antibacterial activity against Shigella dysenteriae after 24 hrs by micro broth dilution assay; assay type: functional
Candida albicans = assay: Antifungal against Candida albicans ATCC 76615 after 24 hrs by two fold serial dilution method; assay type: functional; conditions: ATCC 76615, 24 h
Bacillus subtilis = assay: Antibacterial activity against Bacillus subtilis after 24 hrs by micro broth dilution assay; assay type: functional
Escherichia coli [4] = assay: Antibacterial activity against Escherichia coli DH52 after 24 hrs by micro broth dilution assay; assay type: functional; conditions: DH52, 24 h
Pseudomonas aeruginosa = assay: Antibacterial activity against Pseudomonas aeruginosa after 24 hrs by micro broth dilution assay; assay type: functional

Row | SMILES | MIC (Saccharomyces cerevisiae) [mg/L] | MIC (Bacillus) [mg/L] | MIC (Pichia norvegensis) [mg/L] | MIC (Staphylococcus aureus [1]) [mg/L] | MIC (Cyberlindnera jadinii) [mg/L] | MIC (Salmonella typhi) [mg/L] | MIC (Staphylococcus aureus [2]) [mg/L] | MIC (Escherichia coli [3]) [mg/L] | MIC (Aspergillus flavus) [mg/L] | MIC (Micrococcus luteus) [mg/L] | MIC (Shigella dysenteriae) [mg/L] | MIC (Candida albicans) [mg/L] | MIC (Bacillus subtilis) [mg/L] | MIC (Escherichia coli [4]) [mg/L] | MIC (Pseudomonas aeruginosa) [mg/L]
1 | CCCCCCn1c(C(=O)/C=C/c2ccc(Cl)cc2)nc2ccccc21 | 8 (≈ 21.8 µM) | 512 (≈ 1400 µM) | 128 (≈ 349 µM) | 512 (≈ 1400 µM) | 512 (≈ 1400 µM) | 128 (≈ 349 µM) | 512 (≈ 1400 µM) | 512 (≈ 1400 µM) | 128 (≈ 349 µM) | 32 (≈ 87.2 µM) | 512 (≈ 1400 µM) | 512 (≈ 1400 µM) | 256 (≈ 698 µM) | 16 (≈ 43.6 µM) | 512 (≈ 1400 µM)
2 | CCCCCCCCn1c(-c2cc(-c3ccc(F)cc3)nc(N)n2)nc2ccccc21 | 16 (≈ 38.3 µM) | 512 (≈ 1230 µM) | 64 (≈ 153 µM) | 256 (≈ 613 µM) | 8 (≈ 19.2 µM) | 512 (≈ 1230 µM) | 256 (≈ 613 µM) | 256 (≈ 613 µM) | 128 (≈ 307 µM) | 32 (≈ 76.6 µM) | 512 (≈ 1230 µM) | 256 (≈ 613 µM) | 256 (≈ 613 µM) | 512 (≈ 1230 µM) | 512 (≈ 1230 µM)
3 | O=C(/C=C/c1ccc(F)cc1)c1nc2ccccc2[nH]1 | 4 (≈ 15 µM) | 32 (≈ 120 µM) | 128 (≈ 481 µM) | 64 (≈ 240 µM) | > 512 | 32 (≈ 120 µM) | 16 (≈ 60.1 µM) | 16 (≈ 60.1 µM) | 512 (≈ 1920 µM) | 16 (≈ 60.1 µM) | 256 (≈ 961 µM) | 128 (≈ 481 µM) | 64 (≈ 240 µM) | 64 (≈ 240 µM) | 128 (≈ 481 µM)
4 | CCCCCCCCn1c(C(=O)/C=C/c2ccc(Cl)cc2)nc2ccccc21 | 4 (≈ 10.1 µM) | 512 (≈ 1300 µM) | 512 (≈ 1300 µM) | 512 (≈ 1300 µM) | 512 (≈ 1300 µM) | 128 (≈ 324 µM) | 512 (≈ 1300 µM) | 512 (≈ 1300 µM) | 32 (≈ 81 µM) | 512 (≈ 1300 µM) | 512 (≈ 1300 µM) | 4 (≈ 10.1 µM) | 512 (≈ 1300 µM) | 8 (≈ 20.3 µM) | 512 (≈ 1300 µM)
5 | CCCCn1c(-c2cc(-c3ccc(Cl)cc3Cl)nc(N)n2)nc2ccccc21 | 32 (≈ 77.6 µM) | 512 (≈ 1240 µM) | 32 (≈ 77.6 µM) | 512 (≈ 1240 µM) | 64 (≈ 155 µM) | 512 (≈ 1240 µM) | 512 (≈ 1240 µM) | 32 (≈ 77.6 µM) | 512 (≈ 1240 µM) | 16 (≈ 38.8 µM) | 256 (≈ 621 µM) | 512 (≈ 1240 µM) | 512 (≈ 1240 µM) | 512 (≈ 1240 µM) | 128 (≈ 310 µM)
6 | CCCCCCn1c(-c2cc(-c3ccc(Cl)cc3Cl)nc(N)n2)nc2ccccc21 | 512 (≈ 1160 µM) | 512 (≈ 1160 µM) | 512 (≈ 1160 µM) | 512 (≈ 1160 µM) | 512 (≈ 1160 µM) | 512 (≈ 1160 µM) | 512 (≈ 1160 µM) | 512 (≈ 1160 µM) | 512 (≈ 1160 µM) | 512 (≈ 1160 µM) | 512 (≈ 1160 µM) | 256 (≈ 581 µM) | 512 (≈ 1160 µM) | 64 (≈ 145 µM) | 512 (≈ 1160 µM)
7 | O=C(/C=C/c1ccc(Cl)cc1Cl)c1nc2ccccc2[nH]1 | 16 (≈ 50.4 µM) | 512 (≈ 1610 µM) | 512 (≈ 1610 µM) | 256 (≈ 807 µM) | 64 (≈ 202 µM) | 512 (≈ 1610 µM) | 128 (≈ 404 µM) | 128 (≈ 404 µM) | 512 (≈ 1610 µM) | 512 (≈ 1610 µM) | 256 (≈ 807 µM) | 256 (≈ 807 µM) | 64 (≈ 202 µM) | 512 (≈ 1610 µM) | 512 (≈ 1610 µM)
8 | CCCCCCCCn1c(C(=O)/C=C/c2ccc(F)cc2)nc2ccccc21 | 512 (≈ 1350 µM) | 512 (≈ 1350 µM) | 512 (≈ 1350 µM) | 512 (≈ 1350 µM) | 64 (≈ 169 µM) | 128 (≈ 338 µM) | 512 (≈ 1350 µM) | 512 (≈ 1350 µM) | 256 (≈ 676 µM) | 32 (≈ 84.5 µM) | 512 (≈ 1350 µM) | 512 (≈ 1350 µM) | 16 (≈ 42.3 µM) | 8 (≈ 21.1 µM) | 512 (≈ 1350 µM)

Reference: ChEMBL document CHEMBL4251572, “Novel aminopyrimidinyl benzimidazoles as potentially antimicrobial agents: Design, synthesis and biological evaluation” (Eur J Med Chem, 2018)
